Experimental data from patent US20070219203A1, “Arylalkylamino-substituted quinazoline analogues” (Neurogen Corporation, priority 2004, published 2007).

Each compound was assayed against T1, human capsaicin receptor (Homo sapiens, UniProt Q8NER1) (assay: Calcium mobilization assay, antagonist activity (Example 6)). Conditions: Table I; 50% decrease in fluorescence response of cells expressing human capsaicin receptor exposed to capsaicin.
T1 construct: expressed in transfected cells
Assay type: cell-based
Procedure, shortened: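 Stable HEK293 clones expressing full-length human receptor, loaded with Fluo-3 in KRH buffer pH 7.4. Test compounds at 1 μM to 5 μM final preincubated 0.5 to 6 hours at room temperature, then challenged with capsaicin at its EC50; IC50 is 50% decrease in FLIPR calcium response.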

T1 sequence (Q8NER1 whole entry): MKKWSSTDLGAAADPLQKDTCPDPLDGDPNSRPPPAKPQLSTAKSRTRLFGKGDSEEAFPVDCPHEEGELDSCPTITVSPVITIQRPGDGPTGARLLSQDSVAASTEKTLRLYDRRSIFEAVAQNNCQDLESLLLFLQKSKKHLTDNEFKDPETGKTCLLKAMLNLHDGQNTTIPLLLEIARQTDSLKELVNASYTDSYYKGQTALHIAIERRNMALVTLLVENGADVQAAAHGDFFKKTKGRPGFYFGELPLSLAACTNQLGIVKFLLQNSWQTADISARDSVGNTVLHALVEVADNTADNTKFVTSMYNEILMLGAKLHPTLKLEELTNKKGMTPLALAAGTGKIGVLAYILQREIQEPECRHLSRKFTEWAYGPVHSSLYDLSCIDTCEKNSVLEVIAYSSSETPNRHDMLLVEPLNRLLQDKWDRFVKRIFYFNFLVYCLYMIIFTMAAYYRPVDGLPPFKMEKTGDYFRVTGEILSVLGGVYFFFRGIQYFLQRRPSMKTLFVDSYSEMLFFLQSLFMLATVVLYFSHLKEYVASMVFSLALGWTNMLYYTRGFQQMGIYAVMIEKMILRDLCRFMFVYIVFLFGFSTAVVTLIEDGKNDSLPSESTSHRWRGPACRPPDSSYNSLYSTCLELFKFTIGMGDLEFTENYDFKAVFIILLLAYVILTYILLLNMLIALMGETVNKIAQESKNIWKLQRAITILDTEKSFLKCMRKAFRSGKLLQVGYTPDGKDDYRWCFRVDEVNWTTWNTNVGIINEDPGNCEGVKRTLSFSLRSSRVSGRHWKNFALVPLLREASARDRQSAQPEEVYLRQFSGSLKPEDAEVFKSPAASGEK

IC50, ≤ 1000 nM:
CCOCc1nc(NCCc2cccc(OC)c2)c2ccc(-c3ncccc3Cl)nc2n1 [Compound 57, 7-(3-chloropyridin-2-yl)-2-(ethoxymethyl)-N-[2-(3-methoxyphenyl)ethyl]pyrido[2,3-d]pyrimidin-4-amine]
FC(F)(F)c1cccnc1-c1ccc2c(NCCc3ccccc3)ncnc2c1 [Compound 22, N-(2-phenylethyl)-7-[3-(trifluoromethyl)pyridin-2-yl]quinazolin-4-amine]
Fc1ccccc1CCNc1ncnc2cc(-c3ncccc3C(F)(F)F)ccc12 [Compound 6, N-[2-(2-fluorophenyl)ethyl]-7-[3-(trifluoromethyl)pyridin-2-yl]quinazolin-4-amine]
Cc1ccccc1CCNc1nc(COCC(C)C)nc2nc(-c3ncccc3Cl)ccc12 [Compound 58, 7-(3-chloropyridin-2-yl)-2-(isobutoxymethyl)-N-[2-(2-methylphenyl)ethyl]pyrido[2,3-d]pyrimidin-4-amine]
CC(C)COCc1nc(NCCc2ccc(Cl)cc2)c2ccc(-c3ncccc3C(F)(F)F)nc2n1 [Compound 35, N-[2-(4-chlorophenyl)ethyl]-2-(isobutoxymethyl)-7-[3-(trifluoromethyl)pyridin-2-yl]pyrido[2,3-d]pyrimidin-4-amine]
COc1ccc(CCNc2nc(COCC(C)C)nc3nc(-c4ncccc4C(F)(F)F)ccc23)cc1 [Compound 43, 2-(isobutoxymethyl)-N-[2-(4-methoxyphenyl)ethyl]-7-[3-(trifluoromethyl)pyridin-2-yl]pyrido[2,3-d]pyrimidin-4-amine]
CC(C)COCc1nc(NCCc2cccc(F)c2)c2ccc(-c3ncccc3Cl)nc2n1 [Compound 45]
CC(C)COCc1nc(NC(=O)Cc2ccc(F)cc2)c2ccc(-c3ncccc3C(F)(F)F)nc2n1 [Compound 59, 2-(4-fluorophenyl)-N-{2-(isobutoxymethyl)-7-[3-(trifluoromethyl)pyridin-2-yl]pyrido[2,3-d]pyrimidin-4-yl}acetamide]
CC(C)COCc1nc(NCCc2ccccc2Cl)c2ccc(-c3ncccc3C(F)(F)F)nc2n1 [Compound 33, N-[2-(2-chlorophenyl)ethyl]-2-(isobutoxymethyl)-7-[3-(trifluoromethyl)pyridin-2-yl]pyrido[2,3-d]pyrimidin-4-amine]
CC(C)COCc1nc(NCCc2cccc(C(F)(F)F)c2)c2ccc(-c3ncccc3C(F)(F)F)nc2n1 [Compound 39, 2-(isobutoxymethyl)-N-{2-[3-(trifluoromethyl)phenyl]ethYl}-7-[3-(trifluoromethyl)pyridin-2-yl]pyrido[2,3-d]pyrimidin-4-amine]
FC(F)(F)c1ccccc1-c1ccc2c(NCCc3ccccc3)ncnc2c1 [Compound 1, N-(2-phenylethyl)-7-{2-(trifluoromethyl)phenyl]quinazolin-4-amine]
CC(C)COCc1nc(NCCc2ccc(Cl)cc2)c2ccc(-c3ncccc3Cl)nc2n1 [Compound 49, N-[2-(4-chlorophenyl)ethyl]-7-(3-chloropyridin-2-yl)-2-(isobutoxymethyl)pyrido[2,3-d]pyrimidin-4-amine]
Fc1ccc(CCNc2ncnc3cc(-c4ncccc4C(F)(F)F)ccc23)cc1 [Compound 8, N-[2-(4-fluorophenyl)ethyl]-7-[3-(trifluoromethyl)pyridin-2-yl]quinazolin-4-amine]
CC(C)COCc1nc(NCCc2cccc(Cl)c2)c2ccc(-c3ncccc3Cl)nc2n1 [Compound 48, N-[2-(3-chlorophenyl)ethyl]-7-(3-chloropyridin-2-yl)-2-(isobutoxymethyl)pyrido[2,3-d]pyrimidin-4-amine]
FC(F)(F)c1cccnc1-c1ccc2c(NCCc3ccccc3Cl)ncnc2c1 [Compound 12, N-[2-(2-chlorophenyl)ethyl]-7-[3-(trifluoromethyl)pyridin-2-yl]quinazolin-4-amine]
Fc1ccc(CCNc2ncnc3cc(-c4ncccc4C(F)(F)F)ccc23)cc1F [Compound 27, N-[2-(3,4-difluorophenyl)ethyl]-7-[3-(trifluoromethyl)pyridin-2-yl]quinazolin-4-amine]

Same assay, conditions: Table II; 50% decrease in fluorescence response of cells expressing human capsaicin receptor exposed to capsaicin

IC50, ≤ 1000 nM:
CCCN(Cc1nc(NCCc2ccccc2C)c2ccc(-c3ncccc3C(F)(F)F)cc2n1)CC1CC1 [Compound 140, [2-[(Cyclopropylmethyl-propyl-amino)-methyl]-7-(3-trifluoromethyl-pyridin-2-yl)-quinazolin-4-yl]-(2-o-tolyl-ethyl)-amine]
CCCCCCN(CCCCCC)Cc1nc(NCCc2ccccc2C)c2ccc(-c3ncccc3C(F)(F)F)cc2n1 [Compound 174, [2-Dihexylaminomethyl-7-(3-trifluoromethyl-pyridin-2-yl)-quinazolin-4-yl]-(2-o-tolyl-ethyl)-amine]
CCCCCC(CNc1ncnc2cc(-c3ncccc3C(F)(F)F)ccc12)c1ccccc1 (stereo not drawn) [Compound 73, (2-Phenyl-heptyl)-[7-(3-trifluoromethyl-pyridin-2-yl)-quinazolin-4-yl]-amine]
C=CCN(CC=C)Cc1nc(NCCc2ccccc2)c2ccc(-c3ncccc3C(F)(F)F)cc2n1 [Compound 130, [2-Diallylaminomethyl-7-(3-trifluoromethyl-pyridin-2-yl)-quinazolin-4-yl]-phenethyl-amine]
Cc1ccccc1CCNc1ncnc2cc(-c3ncccc3C(F)(F)F)ccc12 [Compound 65, (2-o-Tolyl-ethyl)-[7-(3-trifluoromethyl-pyridin-2-yl)-quinazolin-4-yl]-amine]
CCN(Cc1nc(NCCc2ccccc2C)c2ccc(-c3ncccc3C(F)(F)F)cc2n1)C1CCCCC1 [Compound 164, [2-[(Cyclohexyl-ethyl amino)-methyl]-7-(3-trifluoromethyl-pyridin-2-yl)-quinazolin-4-yl]-(2-o-tolyl-ethyl)-amine]
COCCN(CCOC)Cc1nc(NCCc2ccccc2C)c2ccc(-c3ncccc3C(F)(F)F)cc2n1 [Compound 168, [2-{[Bis-(2-methoxy-ethyl)-amino]-methyl}-7-(3 trifluoromethyl-pyridin-2-yl)-quinazolin-4-yl]-(2-o-tolyl-ethyl)-amine]
Cc1ccc(CCNc2ncnc3cc(-c4ncccc4C(F)(F)F)ccc23)cc1 [Compound 64, (2-p-Tolyl-ethyl)-[7-(3-trifluoromethyl-pyridin-2-yl)-quinazolin-4-yl]-amine]
Cc1ccccc1CCNc1nc(CN2CC(C)CC(C)C2)nc2cc(-c3ncccc3C(F)(F)F)ccc12 (stereo not drawn) [Compound 177, [2-(3,5-Dimethyl-piperidin-1-ylmethyl)-7-(3-trifluoromethyl-pyridin-2-Yl)-quinazolin-4-yl]-(2-o-tolyl-ethyl)-amine]
FC(F)(F)c1cccnc1-c1ccc2c(NCCc3ccccc3)nc(CN3CCCCCCC3)nc2c1 [Compound 103, [2-Azocan-1-ylmethyl-7-(3-trifluoromethyl-pyridin-2-yl)-quinazolin-4-yl]-phenethyl-amine]
CCCCN(CCCC)Cc1nc(NCCc2ccccc2C)c2ccc(-c3ncccc3C(F)(F)F)cc2n1 [Compound 146]
